Measured values: patent US11236083B2, “Compounds and pharmaceutical compositions for modulating SGK activity, and methods thereof” (NEW ERA PHARMA, INC., priority 2016, dated 2022)
Where “and” joins values, the source holds several entries; their conditions need not be identical. Equal entries are not always repeated. Where two headings read alike, the source gives them in different places.

Key:
Sgk2 = target: T1, Sgk2 (Homo sapiens, UniProt Q9HBY8); experiment: Enzyme based assay for SGK2 (biotinylated Akt Substrates-2 peptide, Eu3+ Cryptate/XL665 detection); format: biochemical
T1 sequence (Q9HBY8 1-367): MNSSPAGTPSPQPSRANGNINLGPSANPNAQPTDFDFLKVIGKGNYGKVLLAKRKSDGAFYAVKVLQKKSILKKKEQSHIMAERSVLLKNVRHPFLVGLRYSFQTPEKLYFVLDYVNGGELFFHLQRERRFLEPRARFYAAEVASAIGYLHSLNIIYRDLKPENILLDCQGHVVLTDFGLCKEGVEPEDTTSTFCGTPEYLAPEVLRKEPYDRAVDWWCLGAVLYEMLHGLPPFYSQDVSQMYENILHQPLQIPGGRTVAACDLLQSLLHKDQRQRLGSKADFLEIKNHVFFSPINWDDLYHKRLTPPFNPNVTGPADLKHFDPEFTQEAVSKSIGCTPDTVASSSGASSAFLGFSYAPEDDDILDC
Protocol: (§1) 1. Enzyme Based Assays for SGK1, SGK2, SGK3, and Akt1
(§2) The kinase enzymatic reaction is carried out with a biotinylated Akt Substrates-2 peptide substrate. The phosphorylated substrate is then detected using a specific anti-phospho peptide antibody which is coupled with Eu^3+ Cryptate and XL665 conjugated with streptavidin.
(§3) Exemplary Assay Conditions
(§4) • Enzyme: ˜0.1 nM • Substrate: 0.2 μM • ATP: 50 μM and 1 mM • Mg^2+: 10 mM • Reaction time: 60 min with 50 μM ATP and 30 min with 1 mM ATP • SA-XL to Biotin: 1:10
(§5) Detailed Steps • 1. prepare the enzyme and substrate solution with the buffer from Cisbio • 2. add the enzyme and substrate solution to the diluted compound plate • 3. transfer 5 μL of compound, enzyme, and substrate mixture to an 384-well assay plate • 4. add 5 μL ATP (with Mg^2+) solution to initiate the reaction • 5. after certain time, add 10 μL of stop solution containing SA-XL and specific antibody • 6. read the plate after 2 h incubation at rt • 7. process the data using prizm software (Exemplary results are shown in FIG. 1.) 2. PK Studies Protocol

Sgk3 = target: T2, Sgk3 (Homo sapiens, UniProt Q96BR1); experiment: Enzyme based assay for SGK3; format: biochemical
T2 sequence (Q96BR1 1-496): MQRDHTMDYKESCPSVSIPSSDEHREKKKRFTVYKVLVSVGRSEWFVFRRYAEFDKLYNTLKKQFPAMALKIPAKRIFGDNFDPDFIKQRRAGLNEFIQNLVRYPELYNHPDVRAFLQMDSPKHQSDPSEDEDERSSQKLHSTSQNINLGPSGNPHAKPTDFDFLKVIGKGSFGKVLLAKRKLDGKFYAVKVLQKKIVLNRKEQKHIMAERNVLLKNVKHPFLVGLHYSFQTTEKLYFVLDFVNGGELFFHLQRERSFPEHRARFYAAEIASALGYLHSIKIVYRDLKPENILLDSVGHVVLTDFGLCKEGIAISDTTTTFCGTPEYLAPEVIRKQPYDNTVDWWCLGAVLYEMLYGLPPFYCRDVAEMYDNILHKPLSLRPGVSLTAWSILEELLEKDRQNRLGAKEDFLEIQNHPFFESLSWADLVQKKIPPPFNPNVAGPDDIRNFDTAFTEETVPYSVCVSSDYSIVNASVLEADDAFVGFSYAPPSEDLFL
Protocol: as §1, §2, §3, §4, §5

Sgk1 = target: T3, Sgk1 (Homo sapiens, UniProt O00141); experiment: Enzyme based assay for SGK1 (biotinylated Akt Substrates-2 peptide, Eu3+ Cryptate/XL665 detection); format: biochemical
T3 sequence (O00141 1-431): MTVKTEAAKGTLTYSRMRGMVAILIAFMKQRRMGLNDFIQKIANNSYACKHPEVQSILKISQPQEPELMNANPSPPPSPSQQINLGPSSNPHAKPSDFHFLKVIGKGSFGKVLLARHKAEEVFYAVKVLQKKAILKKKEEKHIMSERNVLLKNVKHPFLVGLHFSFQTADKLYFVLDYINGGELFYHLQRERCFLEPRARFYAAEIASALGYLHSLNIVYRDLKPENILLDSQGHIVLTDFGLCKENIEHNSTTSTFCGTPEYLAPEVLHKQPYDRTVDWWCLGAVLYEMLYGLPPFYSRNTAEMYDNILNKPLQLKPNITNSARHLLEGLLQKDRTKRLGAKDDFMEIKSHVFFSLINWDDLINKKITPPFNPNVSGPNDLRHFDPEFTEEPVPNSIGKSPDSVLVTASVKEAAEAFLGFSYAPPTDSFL
Protocol: as §1, §2, §3, §4, §5

293T = 293T cell testing (Table 2); format: cell-based; settings: Homo sapiens, HEK-293T; 293T cells
HeLa = HeLa cell testing (Table 2); format: cell-based; settings: Homo sapiens; HeLa cells
293T_O = 293T_O cell testing (Table 2); format: cell-based; settings: 293T_O cells
hERG channels = target: T4, hERG channels (Homo sapiens, UniProt Q12809); experiment: Qpatch hERG assay (automated patch clamp, whole-cell tail current); format: cell-based
T4 construct: expressed in transfected cells
T4 sequence (Q12809 whole entry): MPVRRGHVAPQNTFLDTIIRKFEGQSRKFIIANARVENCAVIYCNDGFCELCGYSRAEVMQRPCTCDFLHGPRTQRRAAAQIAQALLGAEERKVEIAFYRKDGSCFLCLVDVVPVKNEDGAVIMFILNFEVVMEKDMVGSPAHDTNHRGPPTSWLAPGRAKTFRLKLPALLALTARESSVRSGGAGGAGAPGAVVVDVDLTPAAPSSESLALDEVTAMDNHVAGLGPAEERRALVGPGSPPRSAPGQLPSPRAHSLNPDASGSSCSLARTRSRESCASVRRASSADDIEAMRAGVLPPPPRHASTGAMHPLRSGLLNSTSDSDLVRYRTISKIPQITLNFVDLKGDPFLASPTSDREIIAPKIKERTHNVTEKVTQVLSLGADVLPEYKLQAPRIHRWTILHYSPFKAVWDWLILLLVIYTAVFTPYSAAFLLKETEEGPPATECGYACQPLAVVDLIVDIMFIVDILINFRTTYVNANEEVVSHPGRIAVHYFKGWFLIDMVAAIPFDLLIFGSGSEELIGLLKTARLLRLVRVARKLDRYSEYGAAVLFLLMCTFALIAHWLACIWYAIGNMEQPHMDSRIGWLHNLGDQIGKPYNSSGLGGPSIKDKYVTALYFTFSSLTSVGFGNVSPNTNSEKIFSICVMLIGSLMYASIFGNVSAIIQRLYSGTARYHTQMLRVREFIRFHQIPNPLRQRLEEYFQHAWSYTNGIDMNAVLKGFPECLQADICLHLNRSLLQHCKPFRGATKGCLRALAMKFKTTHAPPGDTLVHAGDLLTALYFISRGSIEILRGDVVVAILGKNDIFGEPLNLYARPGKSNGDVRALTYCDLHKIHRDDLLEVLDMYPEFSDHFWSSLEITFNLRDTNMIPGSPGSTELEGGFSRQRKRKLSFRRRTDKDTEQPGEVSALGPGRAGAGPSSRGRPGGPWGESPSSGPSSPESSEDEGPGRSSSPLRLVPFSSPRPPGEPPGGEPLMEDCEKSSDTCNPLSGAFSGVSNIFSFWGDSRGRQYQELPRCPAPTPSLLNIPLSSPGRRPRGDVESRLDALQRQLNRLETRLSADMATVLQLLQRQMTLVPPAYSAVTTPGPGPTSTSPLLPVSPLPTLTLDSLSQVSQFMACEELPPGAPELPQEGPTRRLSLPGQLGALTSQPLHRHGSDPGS
Protocol: • Assay platform & method: Automated patch clamp (Qpatch-48) • Cell source: CHO cell line stably expressing hERG channels • Measured parameter: Whole-cell tail current of hERG channels • Test concentration: 6 concentrations (30, 10, 3, 1, 0.3, 0.1 μM)
Example: Qpatch hERG Assay

[1] = PK study in male ICR mice, intravenous and oral administration, plasma concentration; format: in vivo; settings: for MRT inf: read-out: MRT(0-∞)
From the text: 3 Male mice/group, 8 groups total with Intravenous and Oral Administration, then measure the compound concentration in plasma.
Selected Pharmacokinetics Parameters of Compound N in Male ICR Mice Following Intravenous and Oral Administration

[2] = 50 μM ATP, read-out: Sgk2 (50 μM ATP)
[3] = 1 mM ATP, read-out: Sgk2 (1 mM ATP)
[4] = 50 μM ATP, read-out: Sgk1 (50 μM ATP)
[5] = 1 mM ATP, read-out: Sgk1 (1 mM ATP)

Compound	IC50 (Sgk2; [2])	IC50 (Sgk2; [3]) [nM]	IC50 (Sgk3) [nM]	IC50 (Sgk1; [4]) [nM]	IC50 (Sgk1; [5]) [nM]	IC50 (HeLa) [nM]	IC50 (293T) [nM]	IC50 (293T_O) [nM]	other results
COc1ccc(F)c(S(=O)(=O)Nc2ccc(-c3cc(C)c4c(N)n[nH]c4n3)cc2)c1 [drawing 111]	4.1 nM	3.7	30	2.8	5.5	–	–	–	–
COc1ccc(F)c(S(=O)(=O)Nc2ccc(-c3cc4[nH]nc(N)c4c(C)n3)cc2)c1 [D, N-(4-(3-amino-4-methyl-1H-pyrazolo[4,3-c]pyr-idin-6-yl)phenyl)-2-fluoro-5-methoxybenzenesulfonamide]	–	–	–	–	–	–	–	–	IC50 (hERG channels; CHO cell line stably expressing hERG channels, highest test concentration 30 μM): 12200 nM; Fitting curve Hillslope (hERG channels; Qpatch hERG concentration-response fit): Fitting curve Hillslope = 0.88
Nc1n[nH]c2nc(-c3ccc(NS(=O)(=O)c4cc(Cl)ccc4F)cc3)ccc12	21.8 nM	569	–	238	> 2000	20100	–	–	–
Nc1n[nH]c2cc(-c3ccc(NS(=O)(=O)c4cc(Cl)ccc4F)cc3)ccc12	6.7 nM	68	–	3.2	113	6600	27600	66800	–
COc1ccc(F)c(S(=O)(=O)Nc2ccc(-c3ccc4c(N)n[nH]c4c3)nc2)c1 [Compound N, N-(6-(3-amino-1H-indazol-6-yl)pyridin-3-yl)-2-fluoro-5-methoxybenzenesulfonamide]	–	–	–	–	–	–	–	–	CLz ([1]; IV (2 mg/kg)): 0.17 mL/min/kg; t1/2z ([1]; IV (2 mg/kg)): 6.99 h; t1/2z ([1]; PO (20 mg/kg)): 17.27 h; F ([1]; PO (20 mg/kg), F is calculated from AUC(0-t)): 63.37%; AUC(0-inf) ([1]; mouse, plasma, IV (2 mg/kg)): 165 µg·h/mL; AUC(0-t) ([1]; mouse, plasma, IV (2 mg/kg)): 151 µg·h/mL; Cmax ([1]; mouse, plasma, IV (2 mg/kg)): 29.1 µg/mL; Tmax ([1]; mouse, plasma, IV (2 mg/kg)): 0.08 h; MRT inf ([1]; mouse, plasma, IV (2 mg/kg)): 8.84 h; Vd ([1]; mouse, plasma, IV (2 mg/kg), read-out: Vz): 0.12 L/kg; AUC(0-inf) ([1]; mouse, plasma, PO (20 mg/kg)): 1530 µg·h/mL; AUC(0-t) ([1]; mouse, plasma, PO (20 mg/kg)): 957 µg·h/mL; Cmax ([1]; mouse, plasma, PO (20 mg/kg)): 71.9 µg/mL; Tmax ([1]; mouse, plasma, PO (20 mg/kg)): 0.25 h; MRT inf ([1]; mouse, plasma, PO (20 mg/kg)): 24.1 h
O=S(=O)(Nc1ccc(-c2ccc3cn[nH]c3c2)cc1)c1cc(Cl)ccc1F	32.1 nM	664	–	124	352	2470	–	–	–
COc1ccc(F)c(S(=O)(=O)Nc2ccc(-c3cc4[nH]nc(N)c4c(C)n3)cc2)c1 [drawing 110]	3.1 nM	5.3	50	10.6	8.5	–	–	–	–
COc1ccc(F)c(S(=O)(=O)Nc2ccc(-c3cnc4cn[nH]c4c3)cc2)c1	8.6 nM and 3.4 nM	> 200	–	–	> 200	13800	66500	> 100000	–
O=S(=O)(Nc1ccc(-c2ccc3cn[nH]c3n2)cc1)c1cc(Cl)ccc1F	5.9 nM	169	–	97.9	77	2170	–	–	–
COc1ccc(F)c(S(=O)(=O)Nc2ccc(-c3cc4[nH]ncc4c(OCC4CNCCO4)n3)cc2)c1 (stereo not shown) [drawing 99]	0.8 nM	5.6	–	3.1	9.7	35800	47900	61200	–
COc1ccc(F)c(S(=O)(=O)Nc2ccc(-c3cc(NCC4CNCCO4)c4cn[nH]c4c3)cc2)c1 (stereo not shown)	1.7 nM	6.6	150	1.9	12.4	–	–	–	–
COc1ccc(F)c(S(=O)(=O)Nc2ccc(-c3cc(OCCO)c4c(N)n[nH]c4c3)cc2)c1	7.9 nM	6.2	90	5.1	7.7	–	–	–	–

Further lines, with some results ahead:

IC50 (Sgk2; [2])	IC50 (Sgk2; [3]) [nM]	IC50 (Sgk3) [nM]	IC50 (Sgk1; [4]) [nM]	IC50 (Sgk1; [5]) [nM]	IC50 (HeLa) [nM]	Compound	IC50 (293T) [nM]	IC50 (293T_O) [nM]	other results
12.3 nM	29.9	130	11.8	2	–	CCOc1cc(-c2ccc(NS(=O)(=O)c3cc(OC)ccc3F)cc2)cc2[nH]nc(N)c12	–	–	–
2 nM	15.8	–	2.5	6.9	11700	COc1ccc(Cl)c(S(=O)(=O)Nc2ccc(-c3cc4[nH]ncc4c(OCC4CNCCO4)n3)cc2)c1 (stereo not shown)	20400	35100	–
4.1 nM	8.2	150	3.2	11.6	–	COc1ccc(F)c(S(=O)(=O)Nc2ccc(-c3cc(CCC4CNCCO4)c4cn[nH]c4c3)cc2)c1 (stereo not shown)	–	–	–
5.1 nM	8.9	40	2.4	17.8	–	COc1ccc(F)c(S(=O)(=O)Nc2ccc(-c3cc(OC)c4c(N)n[nH]c4c3)cc2)c1 [drawing 108]	–	–	–
5.5 nM	54.1	–	–	> 200	68400	COc1ccc(F)c(S(=O)(=O)Nc2ccc(-c3cc4[nH]nc(N)c4cn3)cc2)c1	94400	> 100000	–
6.1 nM	16	–	10.9	35.8	13700	COc1ccc(F)c(S(=O)(=O)Nc2ccc(-c3ccc4c(N)n[nH]c4c3)cc2)c1	56100	47100	–
3.4 nM	4.1	–	2.3	6.6	15600	COc1ccc(F)c(S(=O)(=O)Nc2ccc(-c3cc4[nH]ncc4c(SCC4CNCCO4)n3)cc2)c1 (stereo not shown)	17900	24500	–
2 nM	6.5	70	2.9	6.5	21400	COc1ccc(F)c(S(=O)(=O)Nc2ccc(-c3ccc4c(N)n[nH]c4n3)cc2)c1 [drawing 140]	–	–	–
1.6 nM	10	100	1.3	13.4	–	COc1ccc(F)c(S(=O)(=O)Nc2ccc(-c3cc4[nH]ncc4c(OCC4CNCCO4)n3)cc2)c1 (stereo not shown) [drawing 105]	–	–	–
8 nM	21.3	100	27.7	92.8	–	COCCOc1cc(-c2ccc(NS(=O)(=O)c3cc(OC)ccc3F)cc2)cc2[nH]nc(N)c12	–	–	–
1.8 nM	66	–	5.2	150	> 50000	COc1ccc(F)c(S(=O)(=O)Nc2ccc(-c3ccc4cn[nH]c4n3)cc2)c1	–	–	–
2.1 nM	65.1	–	12.6	67.7	21900	COc1ccc(Cl)c(S(=O)(=O)Nc2ccc(-c3ccc4c(N)n[nH]c4n3)cc2)c1	60700	45500	–
